# Measurements from patent US12486251B2 (PHARMABLOCK SCIENCES (NANJING) , INC., priority 2020, dated 2025).
# Target: CBP recombinant proteins (Homo sapiens (Human), UniProt Q92793)
# Test: Competitive HTRF assay for affinity to CBP recombinant protein
# Type: binding
# Conditions: His-tagged CBP 5 nM, biotin-labeled ligand 50 nM, 1% DMSO
# Method: The affinity of the compounds synthesized in the present patert to the CBP recombinant proteins was determined by competitive HTRF method. His-tagged cyclic adenosine monophosphate response element binding protein (CREB-binding protein, CBP) was expressed in Escherichia coli system and further purified. CBP biotinylated ligands were all self-made. The BL21 star (DE3) competert cells transfected with His-tagged CBP protein genes at N-terminal were cultured at 37° C. for 16 h until the OD value was between 0.6 and 0.8, induced by 0.5 mM of IPTG and cultured overnight. The supernatant of cell lysate was purified by a Ni-ion affinity column and a Superdex75 molecular sieve column sequentially. The purity of resulting CBP proteins was 95%. The fluorescent donor reagent MAb Anti 6HIS—Eu cryptate Gold (Cisbio #61HI2KLA), the receptor reagent Streptavidin-XL665 (#610SAXLA) and the detection buffer (#62SDBRDD) required for HTRF were obtained from CISBIO BIOASSAYS (Codolet, France). Tris(2-carboxyethyl)phosphine hydrochloride (TCEP), sodium chloride, adenosine triphosphate (ATP), Tween-20, dimethylsulfoxide (DMSO), bovine serum albumin (BSA) and HEPES buffer were obtained from SIGMA at the highest level commercially available.
# The general procedure of the competitive HTRF assay for the affinity to CBP recombinant proteins is as follows: 0.05% Tween-20 and 1 mM of TCEP were added immediately before the assay, and the assay was performed in a buffer consisting of 0.1 mg/ml BSA, 50 mM of HEPES and 5 mM of NaCl of pH 7.5. 2.5 μL of compound solution in a determination buffer with 4% DMSO and 5 μL of CBP solution in a determination buffer were added to a white low-volume 384-well microtiter plate, incubated at room temperature for 20 min, and then incubated at room temperature for 40 min by adding 2.5 μL of biotin-labeled ligand solution to the determination buffer. The final concentrations of CBP, biotin-labeled ligand and DMSO were 5 nM, 50 nM and 1%, respectively. Then, 5 μL of MAb Anti 6HIS—Eu cryptate Gold and […] of Streptavidin-XL665 in detection buffers from the manufacturer were added to the mixture, and the mixture was incubated for another 60 min. The final concentration of Streptavidin-XL665 was 12.5 nM, and MAb Anti 6HIS—Eu cryptate Gold was diluted according to the final concentration provided by the supplier. The multimode reader Spark from TECAN (Mannedorf, Switzerland) was used to read the plate to detect the homogeneous time-resolved fluorescence intensity of two groups, in which the excitation wavelength was 320 nm and the emission wavelengths were 665 nm and 620 nm. The IC50 value of the inhibitor was obtained by fitting fluorescence intensity ratios at 665 nm/620 nm with respect to the inhibitor concentration in an S-shaped dose-response curve by using Prism 7 (La Jolla, 15 CA).
# Sequence of CBP recombinant proteins (Q92793 whole entry): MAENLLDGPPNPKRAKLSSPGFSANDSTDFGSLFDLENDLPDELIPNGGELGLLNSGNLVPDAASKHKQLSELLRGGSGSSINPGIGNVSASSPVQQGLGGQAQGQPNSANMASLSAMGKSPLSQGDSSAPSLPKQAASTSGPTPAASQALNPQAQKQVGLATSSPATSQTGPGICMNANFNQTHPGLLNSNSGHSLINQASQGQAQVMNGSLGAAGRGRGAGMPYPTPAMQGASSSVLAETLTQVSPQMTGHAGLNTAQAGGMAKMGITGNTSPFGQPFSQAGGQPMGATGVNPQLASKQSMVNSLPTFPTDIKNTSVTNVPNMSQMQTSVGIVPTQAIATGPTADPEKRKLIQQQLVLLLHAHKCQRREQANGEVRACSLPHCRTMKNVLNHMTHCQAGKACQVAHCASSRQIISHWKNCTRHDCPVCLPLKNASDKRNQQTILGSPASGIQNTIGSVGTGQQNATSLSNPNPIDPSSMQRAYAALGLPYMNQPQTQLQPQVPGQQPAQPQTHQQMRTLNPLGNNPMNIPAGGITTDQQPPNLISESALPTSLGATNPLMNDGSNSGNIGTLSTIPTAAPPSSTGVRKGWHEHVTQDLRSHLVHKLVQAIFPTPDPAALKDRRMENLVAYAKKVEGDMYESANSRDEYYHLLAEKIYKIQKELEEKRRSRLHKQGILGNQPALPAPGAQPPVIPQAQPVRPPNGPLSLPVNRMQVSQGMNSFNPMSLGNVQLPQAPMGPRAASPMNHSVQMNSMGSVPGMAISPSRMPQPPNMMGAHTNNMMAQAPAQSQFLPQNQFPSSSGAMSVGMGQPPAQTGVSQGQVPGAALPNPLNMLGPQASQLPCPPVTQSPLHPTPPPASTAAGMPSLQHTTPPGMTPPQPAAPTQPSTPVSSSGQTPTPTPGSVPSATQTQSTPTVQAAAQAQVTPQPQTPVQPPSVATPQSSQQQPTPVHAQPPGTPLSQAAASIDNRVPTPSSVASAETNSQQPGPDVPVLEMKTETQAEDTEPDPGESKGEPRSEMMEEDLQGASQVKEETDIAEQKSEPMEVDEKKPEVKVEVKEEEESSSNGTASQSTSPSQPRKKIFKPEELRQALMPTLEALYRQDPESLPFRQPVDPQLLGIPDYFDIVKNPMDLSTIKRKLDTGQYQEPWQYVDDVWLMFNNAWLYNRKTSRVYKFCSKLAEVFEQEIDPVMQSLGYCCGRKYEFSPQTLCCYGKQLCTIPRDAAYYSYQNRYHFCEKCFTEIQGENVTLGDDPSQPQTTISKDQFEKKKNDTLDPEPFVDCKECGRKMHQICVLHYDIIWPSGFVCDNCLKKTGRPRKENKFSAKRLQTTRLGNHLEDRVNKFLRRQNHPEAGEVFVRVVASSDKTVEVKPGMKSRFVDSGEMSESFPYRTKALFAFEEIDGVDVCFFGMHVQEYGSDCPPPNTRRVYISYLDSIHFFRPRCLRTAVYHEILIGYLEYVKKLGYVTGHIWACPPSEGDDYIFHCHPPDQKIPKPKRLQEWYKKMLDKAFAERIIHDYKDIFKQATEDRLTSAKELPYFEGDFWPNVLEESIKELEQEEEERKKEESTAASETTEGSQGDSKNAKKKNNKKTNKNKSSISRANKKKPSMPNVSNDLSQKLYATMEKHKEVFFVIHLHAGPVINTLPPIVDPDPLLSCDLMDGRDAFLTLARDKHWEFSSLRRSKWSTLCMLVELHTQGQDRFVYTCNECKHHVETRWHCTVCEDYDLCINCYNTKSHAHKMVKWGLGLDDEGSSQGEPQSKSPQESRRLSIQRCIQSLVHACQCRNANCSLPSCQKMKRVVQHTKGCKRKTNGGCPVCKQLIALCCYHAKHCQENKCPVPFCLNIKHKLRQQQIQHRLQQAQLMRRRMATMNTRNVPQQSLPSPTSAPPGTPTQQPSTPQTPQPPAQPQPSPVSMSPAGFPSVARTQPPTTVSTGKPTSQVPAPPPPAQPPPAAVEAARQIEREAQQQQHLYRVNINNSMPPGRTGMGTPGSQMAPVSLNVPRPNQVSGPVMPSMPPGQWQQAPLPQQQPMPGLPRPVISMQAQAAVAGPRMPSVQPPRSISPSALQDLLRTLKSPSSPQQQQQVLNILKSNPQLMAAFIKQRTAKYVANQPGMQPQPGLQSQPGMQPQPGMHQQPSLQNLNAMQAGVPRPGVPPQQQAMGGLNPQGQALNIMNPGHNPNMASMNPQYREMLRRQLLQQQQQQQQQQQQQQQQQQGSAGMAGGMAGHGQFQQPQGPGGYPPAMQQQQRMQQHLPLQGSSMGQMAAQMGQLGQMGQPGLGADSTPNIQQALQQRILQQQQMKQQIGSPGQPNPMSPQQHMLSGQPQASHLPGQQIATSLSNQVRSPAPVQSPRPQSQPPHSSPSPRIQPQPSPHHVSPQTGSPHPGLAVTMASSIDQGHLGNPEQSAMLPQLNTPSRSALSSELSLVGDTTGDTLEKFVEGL
row,IC50,SMILES
1,72 nM,"CNC(=O)c1cc2ccccc2c(N2CCCc3cc(-c4cnn(C)c4)ccc32)n1 [Example 1, 1-[6-(1-methyl-1H-pyrazol-4-yl)-3,4-dihydro-2H-quinolin-1-yl]-isoquinoline-3-carboxylic acid methylamide]"
2,19 nM,"CNC(=O)c1cc2ccccc2c(N2CCCc3cc(-c4cnn(C)c4)c(C(F)F)cc32)n1 [Example 2, 1-[7-difluoromethyl-6-(1-methyl-1H-pyrazol-4-yl)-3,4-dihydro-2H-quinolin-1-yl]isoquinoline-3-carboxylic acid methylamide]"
3,245 nM,"Cn1cc(-c2cc3c(cc2C(F)F)N(c2nc(C(N)=O)cc4ccccc24)CCC3)cn1 [Example 3, 1-[7-difluoro-methyl-6-(1-methyl-1H-pyrazol-4-yl)-3,4-dihydro-2H-quinolin-1-yl]-isoquinoline-3-carboxylic acid amide]"
4,> 1000 nM,"CN(C)C(=O)c1cc2ccccc2c(N2CCCc3cc(-c4cnn(C)c4)c(C(F)F)cc32)n1 [Example 4, 1-[7-difluoro-methyl-6-(1-methyl-1H-pyrazol-4-yl)-3,4-dihydro-2H-quinolin-1-yl]-isoquinoline-3-carboxylic acid dimethylamide]"
5,> 1000 nM,"CCNC(=O)c1cc2ccccc2c(N2CCCc3cc(-c4cnn(C)c4)c(C(F)F)cc32)n1 [Example 5, 1-[7-difluoro-methyl-6-(1-methyl-1H-pyrazol-4-yl)-3,4-dihydro-2H-quinolin-1-yl]-isoquinoline-3-carboxylic acid ethylamide]"
6,> 1000 nM,"Cn1cc(-c2cc3c(cc2C(F)F)N(c2nc(C(=O)NCCO)cc4ccccc24)CCC3)cn1 [Example 6, 1-[7-difluoro-methyl-6-(1-methyl-1H-pyrazol-4-yl)-3,4-dihydro-2H-quinolin-1-yl]-isoquinoline-3-carboxylic acid(2-hydroxy-ethyl)-amide]"
7,> 1000 nM,"CC(O)CNC(=O)c1cc2ccccc2c(N2CCCc3cc(-c4cnn(C)c4)c(C(F)F)cc32)n1 (stereo not drawn) [Example 7, 1-[7-difluoro-methyl-6-(1-methyl-1H-pyrazol-4-yl)-3,4-dihydro-2H-quinolin-1-yl]-isoquinoline-3-carboxylic acid(2-hydroxy-propyl)-amide]"
8,> 1000 nM,"Cn1cc(-c2cc3c(cc2C(F)F)N(c2nc(C(=O)N4CC(O)C4)cc4ccccc24)CCC3)cn1 [Example 8, {1-[7-difluoro-methyl-6-(1-methyl-1H-pyrazol-4-yl)-3,4-dihydro-2H-quinolin-1-yl]-isoquinolin-3-yl}-(3-hydroxy-azetidine-1-yl)methanone]"
9,> 1000 nM,"Cn1cc(-c2cc3c(cc2C(F)F)N(c2nc(C(=O)NC4CC4)cc4ccccc24)CCC3)cn1 [Example 9, 1-[7-difluoro-methyl-6-(1-methyl-1H-pyrazol-4-yl)-3,4-dihydro-2H-quinolin-1-yl]-isoquinoline-3-carboxylic acid cyclopro-pylamide]"
10,> 1000 nM,CNC(=O)c1cccc(N2CCCc3cc(-c4cnn(C)c4)c(C(F)F)cc32)n1 [Example 11]
11,> 1000 nM,"CNC(=O)c1nc(N2CCCc3cc(-c4cnn(C)c4)c(C(F)F)cc32)c2ccccc2n1 [Example 12, 4-[7-difluoro-methyl-6-(1-methyl-1H-pyrazol-4-yl)-3,4-dihydro-2H-quinolin-1-yl]-quinazolin-2-carboxylic acid methylamide]"
12,21 nM,"CNC(=O)c1cc2cnccc2c(N2CCCc3cc(-c4cnn(C)c4)c(C(F)F)cc32)n1 [Example 13, 2-[7-difluoro-methyl-6-(1-methyl-1H-pyrazol-4-yl)-3,4-dihydro-2H-quinolin-1-yl]-[2,6] naphthyridine-3-carboxylic acid methylamide]"
13,15 nM,"CNC(=O)c1cc2ccncc2c(N2CCCc3cc(-c4cnn(C)c4)c(C(F)F)cc32)n1 [Example 14, 1-[7-difluoro-methyl-6-(1-methyl-1H-pyrazol-4-yl)-3,4-dihydro-2H-quinolin-1-yl]-[2,7] naphthyridine-3-carboxylic acid methylamide]"
14,7.5 nM,"CNC(=O)c1cc2cccnc2c(N2CCCc3cc(-c4cnn(C)c4)c(C(F)F)cc32)n1 [Example 15, 8-[7-difluoro-methyl-6-(1-methyl-1H-pyrazol-4-yl)-3,4-dihydro-2H-quinolin-1-yl]-[1,7] naphthyridine-6-carboxylic acid methylamide]"
15,13 nM,"CNC(=O)c1cc2ccc(C3=CCOCC3)cc2c(N2CCCc3cc(-c4cnn(C)c4)c(C(F)F)cc32)n1 [Example 16, 1-[7-difluoromethyl-6-(1-methyl-1H-pyrazol-4-yl)-3,4-dihydro-2H-quinolin-1-yl]-7-(3,6-dihydro-2H-pyran-4-yl)-isoquinoline-3-carboxylic acid methylamide]"
16,12 nM,"CNC(=O)c1cc2ccc(C3CCOCC3)cc2c(N2CCCc3cc(-c4cnn(C)c4)c(C(F)F)cc32)n1 [Example 17, 1-[7-difluoromethyl-6-(1-methyl-1H-pyrazol-4-yl)-3,4-dihydro-2H-quinolin-1-yl]-7-(tetrahydro-4-yl)-isoquinoline-3-carboxylic acid methylamide]"
17,19 nM,"CNC(=O)c1cc2ccc(C3=CCOC3)cc2c(N2CCCc3cc(-c4cnn(C)c4)c(C(F)F)cc32)n1 [Example 18, 1-[7-difluoromethyl-6-(1-methyl-1H-pyrazol-4-yl)-3,4-dihydro-2H-quinolin-1-yl]-7-(2,5-dihydro-furan-3-yl)-isoquinoline-3-carboxylic acid methylamide]"
18,6.9 nM,"CNC(=O)c1cc2ccc(C3CCOC3)cc2c(N2CCCc3cc(-c4cnn(C)c4)c(C(F)F)cc32)n1 (stereo not drawn) [Example 19, 1-[7-difluoromethyl-6-(1-methyl-1H-pyrazol-4-yl)-3,4-dihydro-2H-quinolin-1-yl]-7-(tetrahydrofuran-3-yl)-isoquinoline-3-carboxylic acid methylamide]"
19,18 nM,"CNC(=O)c1cc2cc(C3=CCOCC3)ccc2c(N2CCCc3cc(-c4cnn(C)c4)c(C(F)F)cc32)n1 [Example 20, 1-[7-difluoromethyl-6-(1-methyl-1H-pyrazol-4-yl)-3,4-dihydro-2H-quinolin-1-yl]-6-(3,6-dihydro-2H-pyran-4-yl)-isoquino-line-3-carboxylic acid methylamide]"
20,38 nM,"CNC(=O)c1cc2cc(C3CCOCC3)ccc2c(N2CCCc3cc(-c4cnn(C)c4)c(C(F)F)cc32)n1 [Example 21, 1-[7-difluoromethyl-6-(1-methyl-1H-pyrazol-4-yl)-3,4-dihydro-2H-quinolin-1-yl]-6-(tetrahydro-pyran-4-yl)-isoquinoline-3-carboxylic acid methylamide]"
21,22 nM,"CNC(=O)c1cc2cc(C3=CCOC3)ccc2c(N2CCCc3cc(-c4cnn(C)c4)c(C(F)F)cc32)n1 [Example 22, 1-[7-difluoromethyl-6-(1-methyl-1H-pyrazol-4-yl)-3,4-dihydro-2H-quinolin-1-yl]-6-(2,5-dihydro-furan-3-yl)-isoquinoline-3-carboxylic acid methylamide]"
22,18 nM,"CNC(=O)c1cc2cc(C3CCOC3)ccc2c(N2CCCc3cc(-c4cnn(C)c4)c(C(F)F)cc32)n1 (stereo not drawn) [Example 23, 1-[7-difluoromethyl-6-(1-methyl-1H-pyrazol-4-yl)-3,4-dihydro-2H-quinolin-1-yl]-6-(tetrahydrofuran-3-yl)-isoquinoline-3-carboxylic acid methylamide]"
23,7.8 nM,"CNC(=O)c1cc2ccc(N3CCOC3=O)cc2c(N2CCCc3cc(-c4cnn(C)c4)c(C(F)F)cc32)n1 [Example 24, 1-[7-difluoromethyl-6-(1-methyl-1H-pyrazol-4-yl)-3,4-dihydro-2H-quinolin-1-yl]-7-(2-oxo-oxazolidin-3-yl)-isoquinoline-3-carboxylic acid methylamide]"
24,4.2 nM,"CNC(=O)c1cc2cc(N3CCOC3=O)ccc2c(N2CCCc3cc(-c4cnn(C)c4)c(C(F)F)cc32)n1 [Example 25, 1-[7-difluoromethyl-6-(1-methyl-1H-pyrazol-4-yl)-3,4-dihydro-2H-quinolin-1-yl]-6-(2-oxo-oxazolidin-3-yl)-isoquinoline-3-carboxylic acid methylamide]"
